{"source": "paper PMC11271513", "about": "“Pseudoirreversible inhibition elicits persistent efficacy of a sphingosine 1-phosphate receptor 1 antagonist” (Nature Communications, 2024)", "key": {"[1]": {"target": "T1, Sphingosine 1-phosphate receptor 1 (S1PR1) (Homo sapiens, UniProt P21453, M124V)", "T1 construct": "HiBiT-tagged human S1PR1 Val124 mutant in HEK293 cells", "T1 sequence (P21453 whole entry M124V)": "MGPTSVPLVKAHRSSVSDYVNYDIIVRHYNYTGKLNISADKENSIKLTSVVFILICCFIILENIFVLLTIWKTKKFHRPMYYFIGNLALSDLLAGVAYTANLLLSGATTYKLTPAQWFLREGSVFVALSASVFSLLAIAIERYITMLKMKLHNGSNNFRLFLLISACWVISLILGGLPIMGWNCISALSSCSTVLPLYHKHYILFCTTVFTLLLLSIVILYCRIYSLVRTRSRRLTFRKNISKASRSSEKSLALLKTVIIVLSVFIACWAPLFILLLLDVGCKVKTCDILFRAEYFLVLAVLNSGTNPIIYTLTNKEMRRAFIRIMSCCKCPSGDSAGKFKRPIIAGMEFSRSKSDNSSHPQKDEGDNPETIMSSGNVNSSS", "assay": "functional reversibility assays (internalization, cAMP)", "type": "cell-based"}, "[2]": {"target": "T2, Sphingosine 1-phosphate receptor 1 (S1PR1) (Homo sapiens, UniProt P21453)", "T2 construct": "human S1PR1 in HEK293 cell membranes", "T2 sequence (P21453 whole entry)": "as the sequence (P21453 whole entry M124V) above, with V124M counted along it", "assay": "GTP binding assay; also functional reversibility and washout dissociation half-life […] h", "type": "biochemical"}}}
{"smiles": "CCN(c1ccc(Cl)c(C(F)(F)F)c1)C(C)c1ccc(C)c(CN2CC(C(=O)O)C2)c1", "note": "(racemic) [KSI-6666]", "values": [{"measurement": "functional reversibility assays (internalization, cAMP)", "setting": "[1]", "result": "in the Val124 mutant, pre-bound KSI-6666 was almost completely replaced by the added agonist"}, {"measurement": "IC50", "setting": "[2]", "result": 6.4, "unit": "nM"}]}
